# Results as given in patent US8853196B2, “Aminochromane, aminothiochromane and amino-1,2,3,4-tetrahydroquinoline derivatives, pharmaceutical compositions containing them, and their use in therapy” (AbbVie Deutschland GmbH & Co. KG, priority 2011, dated 2014).
# pKi: −log10 of the molar value. Counter-ions that a name gives are not always drawn.
# Target: T1, human GlyT1c transporter (Homo sapiens, UniProt P48067)
# T1 construct: expressed in transfected cells; host or cells: CHO cells (recombinant; membranes)
# T1 sequence (P48067 1-706): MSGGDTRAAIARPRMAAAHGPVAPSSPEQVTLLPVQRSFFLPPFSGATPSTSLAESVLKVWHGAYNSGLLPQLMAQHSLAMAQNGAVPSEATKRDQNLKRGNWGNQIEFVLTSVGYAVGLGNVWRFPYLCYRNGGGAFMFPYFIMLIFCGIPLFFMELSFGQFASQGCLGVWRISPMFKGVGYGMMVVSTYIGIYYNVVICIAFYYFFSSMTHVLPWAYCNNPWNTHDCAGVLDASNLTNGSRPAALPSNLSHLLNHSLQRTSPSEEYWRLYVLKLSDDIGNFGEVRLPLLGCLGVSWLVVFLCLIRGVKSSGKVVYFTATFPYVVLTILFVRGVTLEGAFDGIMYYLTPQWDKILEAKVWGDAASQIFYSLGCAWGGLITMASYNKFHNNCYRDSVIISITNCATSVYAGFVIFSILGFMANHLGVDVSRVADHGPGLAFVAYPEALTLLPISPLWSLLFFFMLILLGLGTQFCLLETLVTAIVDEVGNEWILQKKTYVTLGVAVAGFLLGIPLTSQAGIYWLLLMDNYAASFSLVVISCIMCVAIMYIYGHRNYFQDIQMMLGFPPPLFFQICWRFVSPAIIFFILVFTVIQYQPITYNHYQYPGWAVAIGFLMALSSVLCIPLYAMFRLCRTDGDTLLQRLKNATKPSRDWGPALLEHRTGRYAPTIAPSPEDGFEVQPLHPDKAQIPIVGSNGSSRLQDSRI
# Assay: Radioligand binding assay using recombinant CHO cell membranes expressing human GlyT1
# Settings: values given as upper bounds, read-out: radioligand binding Kiapp
# Description: 2. Radioligand Binding Assays Using Recombinant CHO Cell Membranes Expressing Human GlyT1:
# Radioligand binding to human GlyT1c transporter-expressing membranes was determined as described in Mezler et al., Molecular Pharmacology 74:1705-1715, 2008.
row,pKi,Compound
1,≥ 8.00,"CN[C@@H]1COc2ccc(OCCNS(=O)(=O)c3cnn(C)c3)cc2[C@@H]1Cc1ccccc1 (relative stereo) [Example 1a, cis-N-(2-{[4-Benzyl-3-(methylamino)-3,4-dihydro-2H-chromen-6-yl]oxy}ethyl)-1-methyl-1H-pyrazole-4-sulfonamide hydrochloride]"
2,≥ 8.00,"CN[C@@H]1COc2ccc(OCCNS(=O)(=O)c3cnn(C)c3)cc2[C@H]1Cc1ccccc1 (relative stereo) [Example 1b, trans-N-(2-{[-4-benzyl-3-(methylamino)-3,4-dihydro-2H-chromen-6-yl]oxy}ethyl)-1-methyl-1H-pyrazole-4-sulfonamide hydrochloride]"
3,≥ 8.00,"CN[C@@H]1COc2ccc(OCCNS(=O)(=O)c3cn(C)cn3)cc2[C@@H]1Cc1ccccc1 (relative stereo) [Example 2a, cis-N-(2-{[-4-Benzyl-3-(methylamino)-3,4-dihydro-2H-chromen-6-yl]oxy}ethyl)-1-methyl-1H-imidazole-4-sulfonamide]"
4,≥ 8.00,"CN[C@@H]1COc2ccc(OCCNS(=O)(=O)c3cn(C)cn3)cc2[C@H]1Cc1ccccc1 (relative stereo) [Example 2b, trans-N-(2-{[-4-benzyl-3-(methylamino)-3,4-dihydro-2H-chromen-6-yl]oxy}ethyl)-1-methyl-1H-imidazole-4-sulfonamide]"
5,≥ 7.00,"CCCS(=O)(=O)NCCOc1ccc2c(c1)[C@H](Cc1ccccc1)[C@H](NC)CO2 (relative stereo) [Example 3a, cis-N-(2-{[-4-Benzyl-3-(methylamino)-3,4-dihydro-2H-chromen-6-yl]oxy}ethyl)propane-1-sulfonamide]"
6,≥ 6.00,"CCCS(=O)(=O)NCCOc1ccc2c(c1)[C@@H](Cc1ccccc1)[C@H](NC)CO2 (relative stereo) [Example 3b, trans-N-(2-{[-4-benzyl-3-(methylamino)-3,4-dihydro-2H-chromen-6-yl]oxy}ethyl)propane-1-sulfonamide]"
7,≥ 8.00,"CN[C@@H]1COc2ccc(OCCNS(=O)(=O)CC3CC3)cc2[C@@H]1Cc1ccccc1 (relative stereo) [Example 4a, cis-N-(2-{[-4-Benzyl-3-(methylamino)-3,4-dihydro-2H-chromen-6-yl]oxy}ethyl)-1-cyclopropylmethanesulfonamide]"
8,≥ 7.00,"CN[C@@H]1COc2ccc(OCCNS(=O)(=O)CC3CC3)cc2[C@H]1Cc1ccccc1 (relative stereo) [Example 4b, trans-N-(2-{[-4-benzyl-3-(methylamino)-3,4-dihydro-2H-chromen-6-yl]oxy}ethyl)-1-cyclopropylmethanesulfonamide]"
9,≥ 8.00,"CN[C@@H]1COc2ccc(CNS(=O)(=O)c3cn(C)cn3)cc2[C@@H]1Cc1ccccc1 (relative stereo) [Example 5a, cis-1-Methyl-1H-imidazole-4-sulfonic acid (4-benzyl-3-methylamino-chroman-6-ylmethyl)-amide]"
10,≥ 8.00,"CN[C@@H]1COc2ccc(CNS(=O)(=O)c3cn(C)cn3)cc2[C@H]1Cc1ccccc1 (relative stereo) [Example 5b, trans-1-Methyl-1H-imidazole-4-sulfonic acid (4-benzyl-3-methylamino-chroman-6-ylmethyl)-amide]"
11,≥ 8.00,"CN[C@@H]1COc2ccc(CNS(=O)(=O)c3cnn(C)c3)cc2[C@@H]1Cc1ccccc1 (relative stereo) [Example 6a, cis-N-{[4-benzyl-3-(methylamino)-3,4-dihydro-2H-chromen-6-yl]methyl}-1-methyl-1H-pyrazole-4-sulfonamide]"
12,≥ 8.00,"CN[C@@H]1COc2ccc(CNS(=O)(=O)c3cnn(C)c3)cc2[C@H]1Cc1ccccc1 (relative stereo) [Example 6b, trans-N-{[-4-benzyl-3-(methylamino)-3,4-dihydro-2H-chromen-6-yl]methyl}-1-methyl-1H-pyrazole-4-sulfonamide]"
13,≥ 8.00,"CCCS(=O)(=O)NCc1ccc2c(c1)[C@H](Cc1ccccc1)[C@H](NC)CO2 (relative stereo) [Example 7a, cis-N-{[4-Benzyl-3-(methylamino)-3,4-dihydro-2H-chromen-6-yl]methyl}propane-1-sulfonamide]"
14,≥ 7.00,"CCCS(=O)(=O)NCc1ccc2c(c1)[C@@H](Cc1ccccc1)[C@H](NC)CO2 (relative stereo) [Example 7b, trans-N-{[4-benzyl-3-(methylamino)-3,4-dihydro-2H-chromen-6-yl]methyl}propane-1-sulfonamide]"
15,≥ 8.00,"CN[C@@H]1COc2ccc(CNS(=O)(=O)CC3CC3)cc2[C@@H]1Cc1ccccc1 (relative stereo) [Example 8a, cis-N-{[4-Benzyl-3-(methylamino)-3,4-dihydro-2H-chromen-6-yl]methyl}-1-cyclopropylmethanesulfonamide]"
16,≥ 7.00,"CN[C@@H]1COc2ccc(CNS(=O)(=O)CC3CC3)cc2[C@H]1Cc1ccccc1 (relative stereo) [Example 8b, trans-N-{[4-benzyl-3-(methylamino)-3,4-dihydro-2H-chromen-6-yl]methyl}-1-cyclopropylmethanesulfonamide]"
17,≥ 7.00,"CCS(=O)(=O)NCc1ccc2c(c1)[C@H](Cc1ccccc1)[C@H](NC)CO2 (relative stereo) [Example 9a, cis-N-{[4-Benzyl-3-(methylamino)-3,4-dihydro-2H-chromen-6-yl]methyl}ethanesulfonamide]"
18,≥ 6.00,"CCS(=O)(=O)NCc1ccc2c(c1)[C@@H](Cc1ccccc1)[C@H](NC)CO2 (relative stereo) [Example 9b, trans-N-{[4-benzyl-3-(methylamino)-3,4-dihydro-2H-chromen-6-yl]methyl}ethanesulfonamide]"
19,≥ 8.00,"Cn1cnc(S(=O)(=O)NCCOc2ccc3c(c2)[C@H](Cc2ccccc2)[C@H](N2CCC2)CO3)c1 (relative stereo) [Example 10, cis-1-Methyl-1H-imidazole-4-sulfonic acid [2-(3-azetidin-1-yl-4-benzyl-chroman-6-yloxy)-ethyl]-amide]"
20,≥ 6.00,"O=S(=O)(CC1CC1)NCCOc1ccc2c(c1)[C@H](Cc1ccccc1)[C@H](N1CCC1)CO2 (relative stereo) [Example 11, cis-N-[2-(3-Azetidin-1-yl-4-benzyl-chroman-6-yloxy)-ethyl]-C-cyclopropyl-methanesulfonamide]"
21,≥ 8.00,"Cn1cnc(S(=O)(=O)NCc2ccc3c(c2)[C@H](Cc2ccccc2)[C@H](N)CO3)c1 (relative stereo) [Example 12, cis-1-Methyl-1H-imidazole 4-sulfonic acid (3-amino-4-benzyl-chroman-6-ylmethyl)-amide]"
22,≥ 8.00,"Cn1cnc(S(=O)(=O)NCc2ccc3c(c2)[C@@H](Cc2ccccc2)[C@H](N)CO3)c1 (relative stereo) [Example 13, trans-1-Methyl-1H-imidazole-4-sulfonic acid (3-amino-4-benzyl-chroman-6-ylmethyl)-amide]"
23,≥ 7.00,"CCCS(=O)(=O)NCCOc1ccc2c(c1)[C@H](Cc1ccccc1)[C@H](N1CCC1)CO2 (relative stereo) [Example 14, cis-Propane-1-sulfonic acid [2-(3-azetidin-1-yl-4-benzyl-chroman-6-yloxy)-ethyl]-amide; trifluoro-acetic acid salt]"
24,≥ 8.00,"Cn1cc(S(=O)(=O)NCc2ccc3c(c2)[C@H](Cc2ccccc2)[C@H](N2CCC2)CO3)cn1 (relative stereo) [Example 15, cis-1-Methyl-1H-pyrazole-4-sulfonic acid (3-azetidin-1-yl-4-benzyl-chroman-6-ylmethyl)-amide]"
25,≥ 8.00,"Cn1cc(S(=O)(=O)NCCOc2ccc3c(c2)[C@H](Cc2ccccc2)[C@H](N2CCC2)CO3)cn1 (relative stereo) [Example 16, cis-1-Methyl-1H-pyrazole-4-sulfonic acid [2-(3-azetidin-1-yl-4-benzyl-chroman-6-yloxy)-ethyl]-amide]"
26,≥ 7.00,"CCS(=O)(=O)NCCOc1ccc2c(c1)[C@H](Cc1ccccc1)[C@H](N1CCC1)CO2 (relative stereo) [Example 18, cis-Ethanesulfonic acid [2-(3-azetidin-1-yl-4-benzyl-chroman-6-yloxy)-ethyl]-amide]"
27,≥ 8.00,"Cn1cnc(S(=O)(=O)NCc2ccc3c(c2)[C@@H](Cc2ccccc2)[C@@H](NCC2CCCCC2)CO3)c1 (relative stereo) [Example 22, cis-1-Methyl-1H-imidazole-4-sulfonic acid [4-benzyl-3-(cyclohexylmethyl-amino)-chroman-6-lmethyl]-amide; trifluoro-acetic acid salt]"
28,≥ 7.00,"CCS(=O)(=O)NCc1ccc2c(c1)[C@H](Cc1ccccc1)[C@H](N)CO2 (relative stereo) [Example 23, cis-Ethanesulfonic acid (3-amino-4-benzyl-chroman-6-ylmethyl)-amide]"
29,≥ 7.00,"CCS(=O)(=O)NCc1ccc2c(c1)[C@@H](Cc1ccccc1)[C@H](N)CO2 (relative stereo) [Example 24, trans-Ethanesulfonic acid (3-amino-4-benzyl-chroman-6-ylmethyl)-amide]"
